Reference: patent US20180362491A1, “STEREOISOMER OF FLOCOUMAFEN, COMPOSITION AND RODENTICIDE BAIT COMPRISING SAME, AND METHOD FOR CONTROLLING TARGET RODENT PESTS” (priority 2015, published 2018)

Type: in vivo, rat
Conditions: male and female rats, D+1 to D+7 after oral tube-feeding
Method: The configurational stereoisomers of flocoumafen are separated by high-pressure liquid chromatography using a LUX® Cellulose-4 chiral column (00F-4490-B0, Phenomenex, Le Pecq, France) as stationary phase and a mixture formed from acetonitrile (A) and water comprising 0.1% by volume of formic acid (B), with an AB volume ratio of 92/8, as mobile phase with a flow rate of the liquid mobile phase in the chromatography column of 0.25 mL/minute. 1 μL of extract comprising flocoumafen at a concentration of 1 μg/mL of acetonitrile is injected. Detection is performed by tandem mass spectrometry (MS/MS) in negative electrospray ionization (ESI) mode. The temperature of the nebulizer gas is 350° C. and its flow rate is 8 L/minute. The pressure of the nebulizer gas is brought to 2700 hPa. In particular, the MRM (“Multiple Reaction Monitoring”) transitions m/z 541.1→382.1 and m/z 541.1→161, corresponding to the flocoumafen signal, are detected.
About 0.525 g(±0.025 g) of rat liver is weighed out accurately and placed in a 50 mL polypropylene tube. 10 mL of acetone are added and the suspension is homogenized using an UltraTurrax® homogenizer/disperser for a time of about 30 seconds. The homogenizer/disperser shaft is rinsed with hot water and then twice with 20 mL of acetone in a polypropylene tube. […]

## O=c1oc2ccccc2c(O)c1C1CC(c2ccc(OCc3ccc(C(F)(F)F)cc3)cc2)Cc2ccccc21 (single isomer, unassigned) [Enantiomer E3, flocoumafen]
  Persistence in the liver (in words, relative to enantiomer E4 and flocoumafen): lower than the persistence of enantiomer E4 of said diastereoisomer D1,4 and lower than the persistence of flocoumafen
